Data taken from article PMC6934184, “Selective DNA-PKcs inhibition extends the therapeutic index of localized radiotherapy and chemotherapy” (The Journal of Clinical Investigation, 2019).

Target: T1, STK24 (MST3) (Homo sapiens, UniProt Q9Y6E0)
T1 construct: purchased Thermo Fisher Scientific (Life Technologies) SelectScreen
Assay: SelectScreen Z'LYTE
Type: biochemical
How it was run: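 SelectScreen broad panel; activity (Z'LYTE, Adapta) plus binding formats. ATP: Km app for CSF1R Z'LYTE; 10 for CAMK1 Adapta. Readout = % per kinase.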

T1 sequence (Q9Y6E0 whole entry): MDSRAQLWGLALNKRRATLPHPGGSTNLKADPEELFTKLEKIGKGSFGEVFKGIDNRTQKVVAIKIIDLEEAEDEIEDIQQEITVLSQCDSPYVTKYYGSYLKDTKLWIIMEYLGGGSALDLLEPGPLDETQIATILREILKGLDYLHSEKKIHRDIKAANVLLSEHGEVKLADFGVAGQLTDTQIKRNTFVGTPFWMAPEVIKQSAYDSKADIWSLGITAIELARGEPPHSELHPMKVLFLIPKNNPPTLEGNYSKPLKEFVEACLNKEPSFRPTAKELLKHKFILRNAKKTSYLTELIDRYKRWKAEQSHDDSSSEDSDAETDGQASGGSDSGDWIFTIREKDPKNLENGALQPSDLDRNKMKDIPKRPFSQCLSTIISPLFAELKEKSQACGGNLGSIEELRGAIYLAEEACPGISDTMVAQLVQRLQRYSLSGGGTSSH

SMILES: CN(C(=O)CN1CCOCC1)c1ccc2sc3c(-c4cccc5c(=O)cc(N6CC7CCC(C6)O7)oc45)cccc3c2c1 [NU5455]
- inhibition at 1 µM: 4.1%
